Laboratory results published in patent publication US4076931A, “Derivatives of an antibiotic XK-62-2 and the process for the production thereof” (Abbott Laboratories, priority 1974, dated 1978).
Converted amounts (≈) assume the structure as drawn. Like-named read-outs stand apart in the source and are kept apart here.

Legend:
Assay type in all cases: cell-based
[1] = test system: Proteus vulgaris ATCC 6897; assay: Minimum inhibitory concentration by agar dilution method, Proteus vulgaris ATCC 6897
Description: (§1) Table 1 illustrates minimum inhibitory concentration of 1-N-(α-hydroxy-δ-aminovaleryl)XK-62-2 and 1-N-(α-hydroxy-ε- aminocaproyl)XK-62-2 against various Gram-negative and Gram-positive bacteria determined by agar dilution method.

[2] = test system: Salmonella typhosa ATCC 9922; assay: Minimum inhibitory concentration by agar dilution method, Salmonella typhosa ATCC 9922; conditions: for MIC: Salmonella enterica, read-out: Minimum Inhibitory Concentration
Description: as §1

[3] = test system: Klebsiella penumoniae ATCC 10031; assay: Minimum inhibitory concentration by agar dilution method, Klebsiella penumoniae ATCC 10031; conditions: for MIC: ATCC10031
Description: as §1

Escherichia coli ATCC 26 = assay: Minimum inhibitory concentration by agar dilution method, Escherichia coli ATCC 26
Description: as §1

[4] = test system: Pseudomonas aeruginosa BMH No. 1; assay: Minimum inhibitory concentration by agar dilution method, Pseudomonas aeruginosa BMH No. 1; conditions: for MIC: BMHNO.1
Description: as §1

[5] = test system: Shigella sonnel ATCC 9290; assay: Minimum inhibitory concentration by agar dilution method, Shigella sonnel ATCC 9290; conditions: for MIC: Shigella, ATCC9290, read-out: Minimum Inhibitory Concentration
Description: as §1

Escherichia coli KY 8327 = assay: Minimum inhibitory concentration by agar dilution method, Escherichia coli KY 8327; conditions: for antibacterial activity: Escherichia coli KY 8327, resistant to kanamycins and gentamicins, in words; for MIC: KY8327
Description: as §1
(§2) In the above Table 1, Escherichia coli KY 8327 and KY 8348 respectively produce adenyltransferase and acetyltransferase intracellularly; the former enzyme inactivates kanamycins and gentamicins by adenylation, and the latter inactivates gentamicins by acetylation.

[6] = test system: Staphylococcus aureus ATCC 6538P; assay: Minimum inhibitory concentration by agar dilution method, Staphylococcus aureus ATCC 6538P; conditions: for MIC: ATCC6538P
Description: as §1

Escherichia coli KY 8348 = assay: Minimum inhibitory concentration by agar dilution method, Escherichia coli KY 8348; conditions: for antibacterial activity: Escherichia coli KY 8348, resistant to known aminoglycoside antibiotics, in words; for MIC: KY8348
Description: as §1, §2

[7] = test system: Bacillus subtilis No. 10707; assay: Minimum inhibitory concentration by agar dilution method, Bacillus subtilis No. 10707
Description: as §1

[8] = test system: Escherichia coli strains having R factors; assay: Antibacterial activity against Escherichia coli strains having R factors; conditions: resistant to known aminoglycoside antibiotics, in words
Description: as §1

[9] = Escherichia coli KY 8327 (produces adenyltransferase), agar dilution method
[10] = Escherichia coli KY 8348 (produces acetyltransferase), agar dilution method

Molecule	MIC [2] [µg/mL]	MIC [3] [µg/mL]	MIC [4] [µg/mL]	MIC [5] [µg/mL]	antibacterial activity (Escherichia coli KY 8327)	MIC (Escherichia coli KY 8327; [9]) [µg/mL]	MIC [6] [µg/mL]	antibacterial activity (Escherichia coli KY 8348)	MIC (Escherichia coli KY 8348; [10]) [µg/mL]	MIC [7] [µg/mL]	antibacterial activity [8]	further results
CNC[C@@H]1CC[C@@H](N)[C@@H](O[C@H]2[C@H](O)[C@@H](O[C@H]3OC[C@](C)(O)[C@H](NC)[C@H]3O)[C@H](NC(=O)[C@@H](O)CCCN)C[C@@H]2N)O1 [1-N-[L-(-)-α-hydroxy-δ-aminovaleryl]XK-62-2]	0.016 (≈ 0.0276 µM)	0.008 (≈ 0.0138 µM)	0.52 (≈ 0.899 µM)	0.065 (≈ 0.112 µM)	very strong antibacterial activity	0.065 (≈ 0.112 µM)	0.008 (≈ 0.0138 µM)	very strong antibacterial activity	0.033 (≈ 0.057 µM)	< 0.004	strong antibacterial activity	MIC ([1]; ATCC6897, Proteus vulgaris ATCC 6897, agar dilution method, read-out: Minimum Inhibitory Concentration): 0.065 µg/mL (≈ 0.112 µM); MIC (Escherichia coli ATCC 26; ATCC26, Escherichia coli ATCC 26, agar dilution method, read-out: Minimum Inhibitory Concentration): 0.033 µg/mL (≈ 0.057 µM)
CNC[C@@H]1CC[C@@H](N)[C@@H](O[C@H]2[C@H](O)[C@@H](O[C@H]3OC[C@](C)(O)[C@H](NC)[C@H]3O)[C@H](N)C[C@@H]2N)O1 [XK-62-2]	0.008 (≈ 0.0173 µM)	< 0.004	0.13 (≈ 0.28 µM)	0.033 (≈ 0.0712 µM)	–	1.04 (≈ 2.24 µM)	< 0.004	–	1.04 (≈ 2.24 µM)	< 0.004	–	MIC ([1]; Proteus vulgaris, ATCC6897, read-out: Minimum Inhibitory Concentration): 0.016 µg/mL (≈ 0.0345 µM); MIC (Escherichia coli ATCC 26; Escherichia coli, ATCC26, read-out: Minimum Inhibitory Concentration): 0.016 µg/mL (≈ 0.0345 µM)
1-N-[L-(-)-α-hydroxy-ε-aminocaproyl]XK-62-2	–	–	–	–	very strong antibacterial activity	–	–	very strong antibacterial activity	–	–	strong antibacterial activity	Minimum Inhibitory Concentration ([1]; Proteus vulgaris ATCC 6897, agar dilution method): 0.26 µg/mL; Minimum Inhibitory Concentration ([2]; Salmonella typhosa ATCC 9922, agar dilution method): 0.065 µg/mL; Minimum Inhibitory Concentration [3]: 0.033 µg/mL; Minimum Inhibitory Concentration (Escherichia coli ATCC 26; Escherichia coli ATCC 26, agar dilution method): 0.13 µg/mL; Minimum Inhibitory Concentration [4]: 4.17 µg/mL; Minimum Inhibitory Concentration ([5]; Shigella sonnel ATCC 9290, agar dilution method): 0.26 µg/mL; Minimum Inhibitory Concentration (Escherichia coli KY 8327; [9]): 0.013 µg/mL; Minimum Inhibitory Concentration [6]: 0.033 µg/mL; Minimum Inhibitory Concentration (Escherichia coli KY 8348; [10]): 0.065 µg/mL; Minimum Inhibitory Concentration [7]: 0.008 µg/mL
